{
  "source": "patent US4468469A",
  "about": "“Substituted phenylacetic acids and salts as TBP blocking agents in iodothyronine immunoassays” (Miles Laboratories, Inc., priority 1982, dated 1984)",
  "key": {"apoglucose oxidase": {"biological_target": "apoglucose oxidase (Aspergillus niger, UniProt P13006)", "sequence (P13006 17-605)": "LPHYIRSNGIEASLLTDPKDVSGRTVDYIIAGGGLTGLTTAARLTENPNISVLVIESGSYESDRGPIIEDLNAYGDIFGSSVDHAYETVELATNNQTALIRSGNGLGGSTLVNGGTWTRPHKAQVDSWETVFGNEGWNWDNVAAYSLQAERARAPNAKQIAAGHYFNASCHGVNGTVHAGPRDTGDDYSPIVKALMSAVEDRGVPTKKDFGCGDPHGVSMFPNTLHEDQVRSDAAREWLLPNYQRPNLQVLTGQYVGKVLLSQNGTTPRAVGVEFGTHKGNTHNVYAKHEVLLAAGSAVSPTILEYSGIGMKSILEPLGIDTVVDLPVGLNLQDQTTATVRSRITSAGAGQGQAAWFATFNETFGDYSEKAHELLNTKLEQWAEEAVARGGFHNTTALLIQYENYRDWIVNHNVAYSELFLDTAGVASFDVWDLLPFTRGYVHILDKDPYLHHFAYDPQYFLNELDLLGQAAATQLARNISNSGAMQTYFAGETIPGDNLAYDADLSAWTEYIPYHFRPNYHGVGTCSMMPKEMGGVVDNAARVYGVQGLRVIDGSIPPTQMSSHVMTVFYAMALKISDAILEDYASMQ", "test": "Activation of apoglucose oxidase by FAD-theophylline conjugate (fenclofenac)", "format": "biochemical", "settings": "5 min, 37° C., read-out: Percent Apoglucose Oxidase Activity", "description": "A series of apoenzyme reactivation measurements were set up with different concentrations of fenclofenac. The assays were performed at 37° C. and the final reagent concentrations in 0.1M phosphate buffer, pH 7.0, were 1.0 nanomolar (nM) FAD-labeled conjugate (an FAD-theophylline conjugate as described in U.S. Pat. No. 4,238,565), 50 nM apoglucose oxidase (U.S. Pat. No. 4,268,631), 2.5 μl/ml anti(glucose oxidase) antiserum, 2 mM sodium dichlorohydroxybenzene sulfonate (DHSA), 0.2 mM 4-aminoantipyrine, 0.1M glucose, 20 μg/ml peroxidase, and 0.1% (w/v) bovine serum albumin. The apoenzyme and anti(glucose oxidase) were preincubated and the reaction then started by simultaneously mixing in the other reagents. The reaction mixtures were incubated for 5 minutes and then absorbance at 520 nm read. The results shown in Table 4 relate fenclofenac concentration to the generation of active glucose oxidase."}, "dihydrofolate reductase": {"system": "dihydrofolate reductase", "test": "Effect on the activity of dihydrofolate reductase", "format": "biochemical", "settings": "for Absorbance Change Over 10 Minutes: 560 nm, 37° C.", "description": "Assay mixtures were prepared to contain various concentrations of fenclofenac and, in a 1 ml final volume at 37° C., 0.3 mM thiazoyl blue, […] dihydrofolate, 0.5 mM NADPH, and 0.012 Units/ml of dihydrofolate reductase. The absorbance of each reaction mixture at 560 nm was read over a 10 minute incubation period at 37° C."}, "antibody to thyroxine": {"system": "antibody to thyroxine", "test": "Effect on the binding of 125I-thyroxine with antibody (polyethyleneglycol precipitation)", "settings": "for Percent 125I-Thyroxine in Precipitate: percent of radioactivity without fenclofenac, 180 min", "description": "A series of antibody binding reactions were set up in 0.1M sodium phosphate buffer, pH 6.5, to give final volumes of 0.6 ml containing various concentrations of fenclofenac. Each reaction contained ^125 I-thyroxine, 20 μl of normal rabbit immunoglobulin, and 2 μl of antibody to thyroxine. The mixtures were incubated at room temperature for about 3 hours and then 400 μl of 50% (w/v) polyethyleneglycol was added. The precipitated proteins were collected by centrifugation and the radioactivity in each precipitate was measured. The results are shown in Table 2 as percent of the radioactivity in the precipitate without fenclofenac."}, "[1]": {"test": "Fluorescence and fluorescence quenching studies (SLFIA conditions)", "settings": "10 mM fenclofenac; excitation 400 nm, emission 450 nm, 50 mM Bicine buffer pH 8.3", "description": "Fluorescence measurements were conducted in 50 mM Bicine buffer (N,N-bis-(2-hydroxyethyl)glycine, Calbiochem-Behring, LaJolla, Calif., USA), pH 8.3, using an Aminco Bowman Fluorometer (American Instruments, Silver Springs, Md., USA), excitation set at 400 nm and emission at 450 nm, which are the fluorescence conditions for the β-galactosyl-umbelliferone enzyme substrate-labeled fluorescent immunoassay (SLFIA) described in U.S. Pat. No. 4,279,992.\nQuenching studies were performed by measuring the fluorescence of a 1.3 μM solution of 2-[7-hydroxy-3-carboxamidocoumarin]ethanol (U.S. Pat. No. 4,273,715) in the presence of various levels of fenclofenac. The ratios of observed fluorescence (F) to fluorescence in the absence of fenclofenac (Fo) versus fenclofenac concentration were calculated and are presented in Table 6."}, "[2]": {"system": "serum proteins (thyroxine binding protein, TBP)", "test": "Dissociation of thyroxine from human serum, second experiment (Seralute Sephadex column, pH 7.0)", "settings": "for release and block the binding of protein-bound iodothyronine: summary of both experiments of Example I; for Percent Dissociated: pH 7.0, 5 min", "description": "Radioactive iodine labeled thyroxine (^125 I-thyroxine obtained from Amersham-Searle, Arlington Heights, IL, USA) was equilibrated with 5 ml of normal human serum for 48 hours at 4° C. […] After 5 minutes of incubation at room temperature, a 165 μl aliquot was applied to a Sephadex® column from a Seralute® thyroxine assay kit (Miles Laboratories, Inc., Ames Division, Elkhart, IN, USA), which had been equilibrated with 0.1M sodium phosphate, pH 7.0. The total radioactivity applied to the columns was measured and the undissociated material was washed through the column with 3 ml of buffer. The columns were counted to determine the percentage of thyroxine dissociated from the serum proteins."}, "[3]": {"system": "antiserum to thyroxine / phosphodiesterase", "test": "Enzyme substrate-labeled immunoassay for thyroxine", "format": "biochemical", "settings": "75 μl of 60 mM fenclofenac", "description": "The following reagents were assembled:\nReagent A: 50 mM Bicine buffer with 0.1% sodium azide, pH 8.5\nReagent B: 60 mM fenclofenac in 0.5N sodium hydroxide\nReagent C: thyroxine standards with concentrations of 0, 2, 4, 6, 8, 10, 12, 16 and 20 μg/dl prepared by adding thyroxine (Sigma) to thyroxine free serum.\nReagent D: antibody/enzyme reagent containing 50 μl antiserum per ml and 0.12 units per ml of phosphodiesterase (Sigma, Type VII) in Bicine buffer.\nReagent E: 1.24 μM of the labeled conjugate (Part A above) in 5 mM formate, 0.1% sodium azide buffer, pH 3.5.\nThe assay protocol involved adding 75 μl of Reagent B and 0.5 ml of Reagent A to a cuvette, followed by 75 μl of an appropriate Reagent C and another 0.5 ml of Reagent A, and finally 75 μl of Reagent D and a third 0.5 ml of Reagent A. After a 1 hour incubation at room temperature, the assay reaction was started by adding 75 μl of Reagent E and 0.5 ml of Reagent A to the cuvette. The fluorescence (excitation=360 nm, emission=450 nm) was measured 20 minutes after addition of Reagent E."}},
  "data": [
    {"smiles": "O=C(O)Cc1ccccc1Oc1ccc(Cl)cc1Cl", "note": "[Fenclofenac, 2-(2,4-dichlorophenoxy)phenylacetic acid]", "values": [
      {"measurement": "activity at 500 µM", "setting": "apoglucose oxidase; pH 7, 0.5 mM fenclofenac", "result": 81, "unit": "%"},
      {"measurement": "activity at 1000 µM", "setting": "apoglucose oxidase; pH 7, 1.0 mM fenclofenac", "result": 66, "unit": "%"},
      {"measurement": "activity at 1500 µM", "setting": "apoglucose oxidase; pH 7, 1.5 mM fenclofenac", "result": 61, "unit": "%"},
      {"measurement": "activity at 2000 µM", "setting": "apoglucose oxidase; pH 7, 2.0 mM fenclofenac", "result": 64, "unit": "%"},
      {"measurement": "activity at 2500 µM", "setting": "apoglucose oxidase; pH 7, 2.5 mM fenclofenac", "result": 47, "unit": "%"},
      {"measurement": "Absorbance Change Over 10 Minutes", "setting": "dihydrofolate reductase; 0.1 mM fenclofenac", "result": 0.359},
      {"measurement": "Absorbance Change Over 10 Minutes", "setting": "dihydrofolate reductase; 0.2 mM fenclofenac", "result": 0.365},
      {"measurement": "Absorbance Change Over 10 Minutes", "setting": "dihydrofolate reductase; 0.5 mM fenclofenac", "result": 0.355},
      {"measurement": "Absorbance Change Over 10 Minutes", "setting": "dihydrofolate reductase; 1.0 mM fenclofenac", "result": 0.332},
      {"measurement": "Absorbance Change Over 10 Minutes", "setting": "dihydrofolate reductase; 2.5 mM fenclofenac", "result": 0.273},
      {"measurement": "Absorbance Change Over 10 Minutes", "setting": "dihydrofolate reductase; 5.0 mM fenclofenac", "result": 0.118},
      {"measurement": "inhibition of enzyme activity (dihydrofolate reductase)", "setting": "dihydrofolate reductase; concentrations below 1.0 mM", "result": "did not give substantial inhibition"},
      {"measurement": "Percent 125I-Thyroxine in Precipitate", "setting": "antibody to thyroxine; 0.2 mM fenclofenac", "result": 97, "unit": "%"},
      {"measurement": "Percent 125I-Thyroxine in Precipitate", "setting": "antibody to thyroxine; 0.5 mM fenclofenac", "result": 80, "unit": "%"},
      {"measurement": "Percent 125I-Thyroxine in Precipitate", "setting": "antibody to thyroxine; 1.0 mM fenclofenac", "result": 69, "unit": "%"},
      {"measurement": "Percent 125I-Thyroxine in Precipitate", "setting": "antibody to thyroxine; 2.5 mM fenclofenac", "result": 61, "unit": "%"},
      {"measurement": "Percent 125I-Thyroxine in Precipitate", "setting": "antibody to thyroxine; 5.0 mM fenclofenac", "result": 43, "unit": "%"},
      {"measurement": "inhibition of the antibody binding reaction", "setting": "antibody to thyroxine; concentrations below about 2.5 mM", "result": "about 40%"},
      {"measurement": "inhibition of the antibody binding reaction", "setting": "antibody to thyroxine; concentrations below about 5 mM", "result": "about 50%"},
      {"measurement": "own fluorescence", "setting": "[1]", "result": "did not exhibit any fluorescence"},
      {"measurement": "release and block the binding of protein-bound iodothyronine", "setting": "[2]; 0.25 mM in immunoassay reaction mixture", "result": "40-50%"},
      {"measurement": "release and block the binding of protein-bound iodothyronine", "setting": "[2]; 0.50 mM in immunoassay reaction mixture", "result": "60-70%"},
      {"measurement": "Percent Dissociated", "setting": "[2]; dissociating agent 0.25 mM", "result": 40, "unit": "%"},
      {"measurement": "Percent Dissociated", "setting": "[2]; dissociating agent 0.50 mM", "result": 61, "unit": "%"},
      {"measurement": "Percent Dissociated", "setting": "[2]; dissociating agent 1.00 mM", "result": 71, "unit": "%"},
      {"measurement": "Percent Dissociated", "setting": "[2]; dissociating agent 2.00 mM", "result": 75, "unit": "%"},
      {"measurement": "Percent Dissociated", "setting": "[2]; dissociating agent 4.00 mM", "result": 79, "unit": "%"},
      {"measurement": "Percent Dissociated", "setting": "[2]; dissociating agent 8.00 mM", "result": 81, "unit": "%"},
      {"measurement": "fluorescence units", "setting": "[3]; thyroxine standard 0 μg/dl, excitation 360 nm, emission 450 nm", "result": 24.9, "unit": "fluorescence units"},
      {"measurement": "fluorescence units", "setting": "[3]; thyroxine standard 2 μg/dl", "result": 25.5, "unit": "fluorescence units"},
      {"measurement": "fluorescence units", "setting": "[3]; thyroxine standard 4 μg/dl", "result": 26.4, "unit": "fluorescence units"},
      {"measurement": "fluorescence units", "setting": "[3]; thyroxine standard 6 μg/dl", "result": 27.2, "unit": "fluorescence units"},
      {"measurement": "fluorescence units", "setting": "[3]; thyroxine standard 8 μg/dl", "result": 26.7, "unit": "fluorescence units"},
      {"measurement": "fluorescence units", "setting": "[3]; thyroxine standard 10 μg/dl", "result": 27.1, "unit": "fluorescence units"},
      {"measurement": "fluorescence units", "setting": "[3]; thyroxine standard 12 μg/dl", "result": 30.0, "unit": "fluorescence units"},
      {"measurement": "fluorescence units", "setting": "[3]; thyroxine standard 16 μg/dl", "result": 30.1, "unit": "fluorescence units"},
      {"measurement": "fluorescence units", "setting": "[3]; thyroxine standard 20 μg/dl", "result": 30.8, "unit": "fluorescence units"}
    ]}
  ]
}
